Assay results reported in patent US11666562B2, “Ilaprazole for inhibiting the release of enveloped viruses from cells” (Northwestern University, priority 2020, dated 2023).

Experiments:
HSV-1 = test: Release of HSV-1 from infected Vero cells, plaque assay; assay type: cell-based, Herpes simplex virus-1 (Kos strain); details: different concentrations, repeated 4 times
Description: (§1) We infected Vero cells with HSV-1 and HSV-2 for two hours at a multiplicity of infection (MOI in pfu\cell) of 0.1 to assay the antiviral activity of tenatoprazole. Following infection, cells were treated with different concentrations of tenatoprazole. After 24 or 48 h the media fractions were collected and released virus titers were determined by standard plaque assays (30). Tenatoprazole caused a 3-log drop of HSV-1 and 4-5 log drop of HSV-2 in released infectious virus from Vero cells at 24 hours after infection in a dose dependent manner (Table 1, shown in FIG. 5, columns 2 and 3) with calculated EC50's ranging from 48-80 μM. Total virus titer was also determined to differentiate between virus released into the media and infectious particles present in cell lysate. […] The concentrations of tenatoprazole that blocked virus release were nontoxic to Vero cells as determined by a 96® AQueous One Solution cell proliferation assay reagent (Table 1, shown in FIG. 5, column 7). Taken together, tenatoprazole inhibited levels of both released and infectious virus particles without affecting cell viability at effective concentrations.
(§2) Herpesvirus infection of Vero cells. Vero cells (0.8×10^6 cells/well of a 6-well plate) were infected with HSV-1 or HSV-2 at a MOI of 0.1 pfu/cell in DMEM with 1% serum for two hours in the C02 incubator at 37° C. In one experiment looking at the effect of tenatoprazole on HSV-2 release from cells 24 and 48 h a MOI of 3 pfu/cell was used. The cell supernatants were aspirated and replaced with 1 ml (24 h) or 2 ml (48 h and 72 h) of DMEM with 1% serum with DMSO or different concentrations of drug (tenatoprazole, ilaprazole, or analogs) dissolved in DMSO. After 24 or 48 h incubation, the cell supernatant was collected and frozen at −80° C. Virus titer in the cell media fraction was determined by standard plaque assays using 10-fold serial dilutions of cell supernatants of Vero cells and incubated for 48 h after which cells were fixed and stained to count the plaques (22). For determination of total virus (extracellular+cytoplasmic), virus infected cells were incubated for 24 h with and without drug presence, then the plate of cells were subjected to 3 cycles of freeze/thawing (−80° C./37° C.) 30 min each prior to collecting the supernatant after centrifugation for measurement of total virus titer. Virus titer was measured by standard plaque assay as above.
(§3) Drug potency and cell toxicity. EC50 calculations were determined by using AAT Bioquest's EC50 calculator. Cell toxicity at different concentrations of drugs as indicated was determine using the Cell Proliferation Reagent WST-1 (Roche Diagnostics) or cellular 96® Aqueous One Reagent viability reagent according to manufacturer's instructions. For 293T cells, the concentration of DMSO was 0.2% or less and assays were carried out with DMEM with 10% serum. Cell toxicity experiments were repeated twice.

HSV-2 = test: Release of HSV-2 from infected Vero cells, plaque assay; assay type: cell-based, Herpes simplex virus-2(A/B-G); details: for Anti-HSV-2 activity (release from Vero cells), in words: Table 2, 24 h
Description: as §1
To examine the effects of the compounds on the release of HSV-2 from Vero cells, we infected the cells with virus two hours prior to treatment with media containing different concentrations of compound. We incubated the cells for 24 or 48 hours and then collected the cell media fractions.
as §2, §3

HIV-1 = details: earlier reports (refs 5, 29); cited from earlier work
[1] = target: T1, Tsg101-UEV (Tsg101 amino acids 1-145) (Homo sapiens, UniProt Q99816); test: Fluorescence thermal shift (FTS) assay, binding to Tsg101-UEV; details: FTS, Sypro-Orange, no DTT
T1 construct: The recombinant Tsg101 fragment (amino acids 1-145), prepared as described above in Materials and Methods; His6 (N); thrombin protease cleavage site (N); made in house; host or cells: E. coli ROSETTA 2 (DE3) pLysS
T1 sequence (Q99816 1-145): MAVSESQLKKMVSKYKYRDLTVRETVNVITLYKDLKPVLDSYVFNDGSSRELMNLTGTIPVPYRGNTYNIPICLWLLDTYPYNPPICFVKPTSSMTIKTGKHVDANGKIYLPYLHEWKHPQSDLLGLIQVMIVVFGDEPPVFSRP
Description: The fluorescence-based thermal shift assay is based on the observation that a protein unfolds upon heating, exposing the hydrophobic residues within its tertiary structure. The unfolding temperature (Tm) is determined by the protein's primary sequence and solution environment. The FTS assay uses a fluorescent dye sensitive to a hydrophobic environment to probe protein stability and its modulation by small molecule ligands. The dye has a low fluorescence quantum yield when in a polar environment. Once in contact with the hydrophobic core normally buried within a folded protein that has become exposed during the thermal unfolding (melting) process, the quantum yield of the dye increases, thus providing a reporting signal. Furthermore, a protein's stability can be affected by ligand binding, resulting in an increase or decrease in its melting temperature. FTS assay uses the Tm shift upon binding of a ligand to identify hit compounds for drug discovery.
Identification of prazole compounds that bind the UEV ubiquitin-binding domain of Tsg101. We screened chemical compounds using a fluorescence thermal shift (FTS) assay (27, 28) to identify small molecules that bind directly to a truncated form of Tsg101 (amino acids 1-145) which contains the Ubiquitin E2 variant (UEV) ubiquitin-binding domain (FIG. 1). The UEV, which contains the PT/SAP binding domain in addition to the ubiquitin-binding domain, provides chaperone functions to HIV-1 Gag that is independent of its interaction with the PS/TAP motif, and contains the prazole binding site (5). This truncated Tsg101, called Tsg101-UEV, was used because full-length Tsg101 has significant solubility issues in aqueous solution. Tsg101 is an adaptor protein and thus lacks a readily deployable functional assay, making FTS a tractable approach to identify interacting compounds. FTS monitors protein thermal denaturation using SYPRO-Orange, a dye which fluoresces when bound to hydrophobic surfaces, which allows monitoring of the changes in hydrophobic surface exposure during protein denaturation (27). Since ligand binding affects protein thermal stability, it can be detected through modulation of protein thermal denaturation (melting) as a shift in melting temperature (Tm). Tsg101-UEV has a well-defined melting curve suitable for FTS. We used the FTS assay to identify compounds that bind to Tsg101-UEV.
Purification of Tsg101 (1-145). N-terminally His6-tagged Tsg101 UEV domain (amino acids 1-145), called Tsg101-UEV, was encoded in a pET-28b vector (Novagen—EMD Millipore), which also included a thrombin protease cleavage site (His6-Thrombin Site-Tsg101, 1-145). Tsg101-UEV was grown in LB broth with Kanamycin (30 μg/ml) in ROSETTA 2 (DE3) pLysS E. coli competent cells (EMD Millipore) and induced with 1 mM IPTG at room temperature for 3 h. Bacteria were collected by centrifugation at 4,000 rpm for 10 min at […]. Bacteria were suspended in 50 ml binding buffer (20 mM Tris-HCl, pH 7.9, 0.5 M NaCl, 5 mM Imidazole) with 1 mM PMSF, 0.1% NP40, and a Protease Inhibitor Cocktail Tablet (Roche) and sonicated for 3.5 min on ice. The sonicate was spun at 9,000 rpm for 1 h at […] in a Sorvall centrifuge. The supernatant was collected and passed through a 1.5 ml Ni-NTA Agarose column. The column was washed with 20 mM Tris-HCl, pH 7.9, 0.5 M NaCl, 30 mM Imidazole wash buffer. […] Protein concentration was determined with a Nano Drop Spectrophotometer at […]. […]

With NC(CO)C(=O)NNCc1ccc(O)c(O)c1O (stereo not shown) [benserazide (K21), benserazide] the “Effect on release of HSV-1 from VERO cells” value (HSV-1) was “did not appear to affect release of virus from cells”.
In the case of COc1ccc2nc([S@@+]([O-])Cc3ncc(C)c(OC)c3C)[nH]c2c1 [esomeprazole], the EC50 (HSV-2; Human alphaherpesvirus 2, Vero cells, MOI 0.1, 24 h, read-out: EC50, inhibition of HSV-2 release) is given as 140 µM and the “Inhibition of release of infectious HIV-1 from 293T cells” value (HIV-1) is given as “quantitatively inhibit the release”.
In the case of COc1ccc2nc([S+]([O-])Cc3c(C)c(OC)c(C)c[n+]3[O-])[nH]c2c1 (stereo not shown) [omeprazole-N-oxide], the “Tm (melting temperature) shift of Tsg101-UEV” value [1] is reported as “did not cause a detectable thermal shift” and the “Anti-HSV-2 activity (release from Vero cells), in words” value (shortened to “Anti-HSV-2 activity”) (HSV-2) is reported as “inactive”.
With COc1ccnc(C[S+]([O-])c2nc3ccc(OC(F)F)cc3[nH]2)c1OC (stereo not shown) [pantoprazole] the “Anti-HSV-2 activity” value (HSV-2) was “inactive”.
For COCCCOc1ccnc(C[S+]([O-])c2nc3ccccc3[nH]2)c1C (stereo not shown) [rabeprazole], the “Anti-HSV-2 activity” value (HSV-2) was “inactive”.
